In patent US6248739A, “Quinolinecarboxamides as antiviral agents” (Pharmacia & Upjohn Company, priority 1999, dated 2001):
pIC50: −log10 of the molar value. Read-outs that look alike come from different tables or passages of the source.

How the values were obtained:
[1] = target: VZV polymerase (Varicella-zoster virus, UniProt P09252); experiment: VZV polymerase assay (Table 1); type: biochemical
[2] = target: T1, HCMV polymerase (Human cytomegalovirus, UniProt P08546); experiment: biochemical
T1 construct: made in house; host or cells: recombinant baculovirus-infected SF-9 insect cells
T1 sequence (P08546 whole entry): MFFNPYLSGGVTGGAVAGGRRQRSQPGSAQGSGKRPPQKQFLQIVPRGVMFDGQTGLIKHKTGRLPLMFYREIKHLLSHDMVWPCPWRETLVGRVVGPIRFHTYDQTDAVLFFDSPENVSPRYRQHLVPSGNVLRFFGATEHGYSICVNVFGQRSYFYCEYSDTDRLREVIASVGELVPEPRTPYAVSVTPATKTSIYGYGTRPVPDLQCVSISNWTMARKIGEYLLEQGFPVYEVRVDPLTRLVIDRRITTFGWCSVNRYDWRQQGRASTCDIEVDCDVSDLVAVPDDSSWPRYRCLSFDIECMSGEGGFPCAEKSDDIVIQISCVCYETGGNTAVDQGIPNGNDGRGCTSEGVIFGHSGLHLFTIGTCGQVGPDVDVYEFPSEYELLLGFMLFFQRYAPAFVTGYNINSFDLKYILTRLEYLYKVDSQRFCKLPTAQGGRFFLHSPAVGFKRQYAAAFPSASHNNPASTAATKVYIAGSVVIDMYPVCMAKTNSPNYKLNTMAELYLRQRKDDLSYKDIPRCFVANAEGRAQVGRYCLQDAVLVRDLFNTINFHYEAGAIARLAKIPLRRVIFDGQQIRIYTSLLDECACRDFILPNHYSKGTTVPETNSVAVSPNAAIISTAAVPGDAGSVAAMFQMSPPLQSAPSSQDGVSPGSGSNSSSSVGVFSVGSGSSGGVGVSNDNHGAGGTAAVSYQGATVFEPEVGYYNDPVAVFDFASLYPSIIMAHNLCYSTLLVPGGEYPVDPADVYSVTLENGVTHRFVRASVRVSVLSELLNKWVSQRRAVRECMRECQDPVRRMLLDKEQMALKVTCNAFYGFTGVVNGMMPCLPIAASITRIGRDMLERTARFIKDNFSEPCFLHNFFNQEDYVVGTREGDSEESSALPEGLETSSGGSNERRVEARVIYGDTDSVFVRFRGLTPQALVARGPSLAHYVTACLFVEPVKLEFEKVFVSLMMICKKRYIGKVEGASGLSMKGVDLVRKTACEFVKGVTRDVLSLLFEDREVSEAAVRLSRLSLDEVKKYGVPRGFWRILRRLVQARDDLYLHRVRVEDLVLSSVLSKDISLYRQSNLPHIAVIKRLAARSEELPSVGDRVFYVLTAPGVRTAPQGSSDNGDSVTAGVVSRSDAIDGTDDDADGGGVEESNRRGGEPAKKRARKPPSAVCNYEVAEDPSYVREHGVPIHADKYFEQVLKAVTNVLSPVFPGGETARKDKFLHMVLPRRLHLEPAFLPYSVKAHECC
Procedure, shortened: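 Scintillation proximity assay with baculovirus/SF-9-expressed HCMV polymerase, 90 nM ³H-dTTP and 6 nM biotinylated poly(dA)-oligo(dT) in HEPES pH 7.5/KCl/MgCl2/BSA, ±2 mM CHAPS, 25 or 37 °C, 30 min for HCMV. Modified version: compounds diluted in 100% DMSO, 4.5 mM DTT added. IC50 from linear regression.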

[3] = target: HSV polymerase (Human herpesvirus 1, UniProt P04293); experiment: HSV polymerase assay (Table 1); type: biochemical
Chain of HSV polymerase (P04293 whole entry): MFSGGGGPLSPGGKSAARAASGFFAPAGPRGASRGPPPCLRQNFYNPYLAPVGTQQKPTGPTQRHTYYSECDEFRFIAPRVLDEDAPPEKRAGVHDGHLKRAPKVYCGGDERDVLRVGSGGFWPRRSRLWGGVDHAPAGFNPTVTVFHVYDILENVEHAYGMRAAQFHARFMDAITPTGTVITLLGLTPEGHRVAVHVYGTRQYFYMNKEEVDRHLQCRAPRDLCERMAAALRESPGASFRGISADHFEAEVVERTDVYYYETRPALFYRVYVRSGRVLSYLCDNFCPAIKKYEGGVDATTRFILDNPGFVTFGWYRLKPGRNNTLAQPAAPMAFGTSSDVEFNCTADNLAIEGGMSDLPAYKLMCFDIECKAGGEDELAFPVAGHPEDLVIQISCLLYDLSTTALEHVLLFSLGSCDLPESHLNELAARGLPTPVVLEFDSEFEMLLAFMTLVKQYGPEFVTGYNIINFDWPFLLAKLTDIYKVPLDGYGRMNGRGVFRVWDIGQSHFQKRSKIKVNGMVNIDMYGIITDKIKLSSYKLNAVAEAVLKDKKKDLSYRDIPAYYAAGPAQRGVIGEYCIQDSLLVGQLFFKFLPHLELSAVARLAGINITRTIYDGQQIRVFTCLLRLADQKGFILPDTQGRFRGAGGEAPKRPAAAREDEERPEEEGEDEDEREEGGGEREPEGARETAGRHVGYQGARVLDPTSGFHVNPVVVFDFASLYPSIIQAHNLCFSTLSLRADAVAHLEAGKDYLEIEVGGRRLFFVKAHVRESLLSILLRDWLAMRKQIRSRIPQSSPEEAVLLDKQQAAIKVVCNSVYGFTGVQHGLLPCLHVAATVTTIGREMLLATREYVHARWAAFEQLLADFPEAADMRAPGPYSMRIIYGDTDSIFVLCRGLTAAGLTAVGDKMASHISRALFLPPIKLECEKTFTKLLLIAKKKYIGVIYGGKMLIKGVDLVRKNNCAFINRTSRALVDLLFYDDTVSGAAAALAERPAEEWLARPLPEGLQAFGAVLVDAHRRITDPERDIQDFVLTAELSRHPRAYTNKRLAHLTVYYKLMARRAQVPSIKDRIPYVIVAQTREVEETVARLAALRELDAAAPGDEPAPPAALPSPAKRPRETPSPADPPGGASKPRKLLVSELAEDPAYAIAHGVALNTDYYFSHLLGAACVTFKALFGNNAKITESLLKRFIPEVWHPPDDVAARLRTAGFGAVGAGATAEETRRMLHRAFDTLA

[4] = HCMV polymerase, SPA, modified assay: compounds in 100% DMSO, 4.5 mM DTT

Chain of VZV polymerase (P09252 whole entry): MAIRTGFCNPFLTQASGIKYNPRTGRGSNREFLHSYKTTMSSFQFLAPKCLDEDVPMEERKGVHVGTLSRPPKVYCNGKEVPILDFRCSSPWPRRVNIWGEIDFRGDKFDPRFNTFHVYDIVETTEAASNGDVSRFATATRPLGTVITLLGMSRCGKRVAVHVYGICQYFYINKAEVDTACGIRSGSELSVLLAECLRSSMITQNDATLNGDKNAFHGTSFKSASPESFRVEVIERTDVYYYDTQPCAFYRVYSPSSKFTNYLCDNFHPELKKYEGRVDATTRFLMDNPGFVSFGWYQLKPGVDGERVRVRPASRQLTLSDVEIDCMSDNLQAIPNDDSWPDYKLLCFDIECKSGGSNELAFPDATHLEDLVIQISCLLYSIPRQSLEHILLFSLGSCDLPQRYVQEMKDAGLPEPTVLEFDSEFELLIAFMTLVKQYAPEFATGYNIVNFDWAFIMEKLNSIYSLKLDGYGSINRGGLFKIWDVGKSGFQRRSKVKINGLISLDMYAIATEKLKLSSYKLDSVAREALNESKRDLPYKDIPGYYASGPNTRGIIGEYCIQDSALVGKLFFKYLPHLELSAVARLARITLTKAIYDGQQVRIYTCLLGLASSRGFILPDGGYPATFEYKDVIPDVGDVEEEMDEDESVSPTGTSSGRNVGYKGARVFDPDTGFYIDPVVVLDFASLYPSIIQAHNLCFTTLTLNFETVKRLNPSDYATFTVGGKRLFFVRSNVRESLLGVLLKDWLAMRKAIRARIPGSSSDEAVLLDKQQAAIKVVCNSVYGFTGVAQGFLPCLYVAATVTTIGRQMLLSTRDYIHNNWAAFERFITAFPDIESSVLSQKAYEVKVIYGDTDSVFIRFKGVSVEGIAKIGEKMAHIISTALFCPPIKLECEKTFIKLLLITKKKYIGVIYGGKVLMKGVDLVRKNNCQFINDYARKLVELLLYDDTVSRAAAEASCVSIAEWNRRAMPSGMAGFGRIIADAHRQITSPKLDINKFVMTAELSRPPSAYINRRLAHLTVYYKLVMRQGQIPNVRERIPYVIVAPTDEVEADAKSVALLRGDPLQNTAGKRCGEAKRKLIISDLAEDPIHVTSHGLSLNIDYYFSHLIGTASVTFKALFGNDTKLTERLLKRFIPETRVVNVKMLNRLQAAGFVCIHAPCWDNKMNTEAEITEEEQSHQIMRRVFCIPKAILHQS

Compound | pIC50 [2, 4] | further results
O=C(NCc1ccc(Cl)cc1)c1cn(CCN2CCOCC2)c2ccc(C=CCO)cc2c1=O [Example 7, N-(4-Chlorobenzyl)-6-(3-hydroxy-1-propenyl)-1-[2-(4-morpholinyl)ethyl]-4-oxo-1,4-dihydro 3-quinolinecarboxamide] | – | pIC50 [1]: 6.11; pIC50 [2]: 6.00; pIC50 [3]: 5.96
CCN(CC)CCn1cc(C(=O)NCc2ccc(Cl)cc2)c(=O)c2cc(C#CCO)ccc21 [Example 12, N-(4-Chlorobenzyl)-1-[2-(diethylamino)ethyl]-6-(3-hydroxy-1-propynyl)-4-oxo-1,4-dihydro-3-quinolinecarboxamide] | 5.70 | pIC50 [1]: 5.72; pIC50 [3]: 5.52
O=C(NCc1ccc(Cl)cc1)c1cn(CCN2CCCCC2)c2ccc(C#CCO)cc2c1=O [Example 14, N-(4-Chlorobenzyl)-6-(3-hydroxy-1-propynyl)-1-[2-(1-piperidinyl)ethyl]-4-oxo-1,4-dihydro-3-quinolinecarboxamide] | – | pIC50 [1]: 5.96; pIC50 [2]: 5.89; pIC50 [3]: 5.92
Cn1cc(C(=O)NCc2ccc(Cl)cc2)c(=O)c2cccc(C#CCCO)c21 [Example 97, N-(4-Chlorobenzyl)-8-(4-hydroxy-1-butynyl)-1-methyl-4-oxo-1,4-dihydro-3-quinolinecarboxamide] | 5.82 | –
Cn1cc(C(=O)NCc2ccc(Cl)cc2)c(=O)c2cc(CN3CC(=NO)C3)ccc21 [Example 99, N-(4-Chlorobenzyl)-6-{[3-(ydroxyimino)-1-azetidinyl]methyl}-1-methyl-4-oxo-1,4-dihydro-3-quinolinecarboxamide] | 5.10 | –
O=C(NCc1ccc(Cl)cc1)c1cn(CCOCCN2CCOCC2)c2ccc(CN3CCOCC3)cc2c1=O [Example 100] | 5.54 | –
O=C(NCc1ccc(Cl)cc1)c1cn(COc2ccc(Cl)cc2)c2ccc(CN3CCOCC3)cc2c1=O [Example 104, N-(4-Chlorobenzyl)-1-[(4-chlorophenoxy)methyl]-6-(4-morpholinylmethyl)-4-oxo-1,4-dihydro-3-quinolinecarboxamide] | 5.80 | –
COCCOCn1cc(C(=O)NCc2ccc(Cl)cc2)c(=O)c2cc(CN3CCOCC3)ccc21 [Example 105, N-(4-Chlorobenzyl)-1-[(2-methoxyethoxy)methyl]-6-(4-morpholinylmethyl)-4-oxo-1,4-dihydro-3-quinolinecarboxamide] | 5.89 | –
O=C(OCCOCn1cc(C(=O)NCc2ccc(Cl)cc2)c(=O)c2cc(CN3CCOCC3)ccc21)c1ccccc1 [Example 106, 2-{[3-{[(4-Chlorobenzyl)amino]carbonyl}-6-(4-morpholinylmethyl)-4-oxo-1(4H)-quinolinyl]methoxy}ethyl benzoate] | 5.51 | –
COC[C@H]1CCCN1n1cc(C(=O)NCc2ccc(Cl)cc2)c(=O)c2cc(CN3CCOCC3)ccc21 [Example 116, N-(4-Chlorobenzyl)-1-[(2R)-2-(methoxymethyl)pyrrolidinyl]-6-(4-morpholinylmethyl)-4-oxo-1,4-dihydro-3-quinolinecarboxamide] | 4.85 | –
CN(C)n1cc(C(=O)NCc2ccc(Cl)cc2)c(=O)c2cc(CN3CCOCC3)ccc21 [Example 117, N-(4-Chlorobenzyl)-1-(dimethylamino)-6-(4-morpholinylmethyl)-4-oxo-1,4-dihydro-3-quinolinecarboxamide] | 5.82 | –
CN(C)n1cc(C(=O)NCc2ccc(Cl)cc2)c(=O)c2cc(C#CCO)ccc21 [Example 120, N-(4-Chlorobenzyl)-1-(dimethylamino)-6-(3-hydroxy-1-propynyl)-4-oxo-1,4-dihydro-3-quinolinecarboxamide] | 5.60 | –
CN(C)n1cc(C(=O)NCc2ccc(Cl)cc2)c(=O)c2ccccc21 [Example 121, N-(4-Chlorobenzyl)-1-(dimethylamino)-4-oxo-1,4-dihydro-3-quinolinecarboxamide] | 5.41 | –
C=CCOn1cc(C(=O)NCc2ccc(Cl)cc2)c(=O)c2ccccc21 [Example 122, 1-(Allyloxy)-N-(4-chlorobenzyl)-4-oxo-1,4-dihydro-3-quinolinecarboxamide] | 5.55 | –
COn1cc(C(=O)NCc2ccc(Cl)cc2)c(=O)c2ccccc21 [Example 123, N-(4-Chlorobenzyl)-1-methoxy-4-oxo-1,4-dihydro-3-quinolinecarboxamide] | 5.09 | –

Second part, led by results:

pIC50 [2, 4] | Compound | further results
6.22 | Cn1cc(C(=O)NCc2ccc(Cl)cc2)c(=O)c2cc(CCCO)cc(OCCO)c21 [Example 4] | pIC50 [1]: 5.92; pIC50 [3]: 6.00
6.10 | CC(C)N(CCn1cc(C(=O)NCc2ccc(Cl)cc2)c(=O)c2cc(C#CCO)ccc21)C(C)C [Example 17, N-(4-Chlorobenzyl)-1-[2-(diisopropylamino)ethyl]-6-(3-hydroxy-1-propynyl)-4-oxo-1,4-dihydro-3-quinolinecarboxamide] | pIC50 [1]: 5.96; pIC50 [3]: 5.70
6.00 | Cn1cc(C(=O)NCc2ccc(Cl)cc2)c(=O)c2cccc(C#CCO)c21 [Example 96, N-(4-Chlorobenzyl)-8-(3-hydroxy-1-propynyl)-1-methyl-4-oxo-1,4-dihydro-3-quinolinecarboxamide] | –
6.51 | Cn1cc(C(=O)NCc2ccc(Cl)cc2)c(=O)c2cc(CC3CCOCC3)ccc21 [Example 98, N-(4-Chlorobenzyl)-1-methyl-4-oxo-6-(tetrahydro-2H-pyran-4-ylmethyl)-1,4-dihydro-3-quinolinecarboxamide] | –
6.52 | O=C(NCc1ccc(Cl)cc1)c1cn(CSc2ccc(Cl)cc2)c2ccc(CN3CCOCC3)cc2c1=O [Example 101, N-(4-Chlorobenzyl)-1-([(4-chlorophenyl)sulfanyl]methyl)-6-(4-morpholinylmethyl)-4-oxo-1,4-dihydro-3-quinolinecarboxamide] | –
6.23 | O=C(NCc1ccc(Cl)cc1)c1cn(C[S+]([O-])c2ccc(Cl)cc2)c2ccc(CN3CCOCC3)cc2c1=O (stereo not drawn) [Example 102] | –
6.08 | O=C(NCc1ccc(Cl)cc1)c1cn(CS(=O)(=O)c2ccc(Cl)cc2)c2ccc(CN3CCOCC3)cc2c1=O [Example 103, N-(4-Chlorobenzyl)-1-([(4-chlorophenyl)sulfonyl]methyl)-6-(4-morpholinylmethyl)-4-oxo-1,4-dihydro-3-quinolinecarboxamide] | –
6.08 | O=C(NCc1ccc(Cl)cc1)c1cn(COCCO)c2ccc(CN3CCOCC3)cc2c1=O [Example 107] | –
6.09 | O=C(NCc1ccc(Cl)cc1)c1cn(C2CCOCC2)c2ccc(CN3CCOCC3)cc2c1=O [Example 108, N-(4-Chlorobenzyl)-6-(4-morpholinylmethyl)-4-oxo-1-tetrahydro-2H-pyran-4-yl-1,4-dihydro-3-quinolinecarboxamide] | –
6.32 | CN1CCC(n2cc(C(=O)NCc3ccc(Cl)cc3)c(=O)c3cc(CN4CCOCC4)ccc32)CC1 [Example 109, N-(4-Chlorobenzyl)-1-(1-methyl-4-piperidinyl)-6-(4-morpholinylmethyl)-4-oxo-1,4-dihydro-3-quinolinecarboxamide] | –
6.17 | O=C(NCc1ccc(Cl)cc1)c1cn(C2CCNCC2)c2ccc(CN3CCOCC3)cc2c1=O [Example 110, N-(4-Chlorobenzyl)-6-(4-morpholinylmethyl)-4-oxo-1-(4-piperidinyl)-1,4-dihydro-3-quinolinecarboxamide] | –
6.14 | O=C(NCc1ccc(Cl)cc1)c1cn(C2CCS(=O)(=O)CC2)c2ccc(CN3CCOCC3)cc2c1=O [Example 111, N-(4-Chlorobenzyl)-1-(1,1-dioxohexahydro-thiopyran-4-yl)-6-(4-morpholinylmethyl)-4-oxo-1,4-dihydro-3-quinolinecarboxamide] | –
6.38 | O=C(NCc1ccc(Cl)cc1)c1cn(N2CCOCC2)c2ccc(CN3CCOCC3)cc2c1=O [Example 112, N-(4-Chlorobenzyl)-1-(4-morpholinyl)-6-(4-morpholinylmethyl)-4-oxo-1,4-dihydro-3-quinolinecarboxamide] | –
6.19 | CN1CCN(n2cc(C(=O)NCc3ccc(Cl)cc3)c(=O)c3cc(CN4CCOCC4)ccc32)CC1 [Example 113, N-(4Chlorobenzyl)-1-(4methyl-1-piperazinyl)-6-(4-morpholinylmethyl)-4-oxo-1,4-dihydro-3-quinolinecarboxamide] | –
6.06 | O=C(NCc1ccc(Cl)cc1)c1cn(N2CCCCC2)c2ccc(CN3CCOCC3)cc2c1=O [Example 114, N-(4-Chlorobenzyl)-6-(4-morpholinylmethyl)-4-oxo-1-(1-piperidinyl)-1,4-dihydro-3-quinolinecarboxamide] | –
6.21 | O=C(NCc1ccc(Cl)cc1)c1cn(N2CCCC2)c2ccc(CN3CCOCC3)cc2c1=O [Example 115, N-(4-Chlorobenzyl)-6-(4-morpholinylmethyl)-4-oxo-1-(1-pyrrolidinyl)-1,4-dihydro-3-quinolinecarboxamide] | –
5.96 | Nn1cc(C(=O)NCc2ccc(Cl)cc2)c(=O)c2cc(C#CCO)ccc21 [Example 118, 1-Amino-N-(4-chlorobenzyl)-6(3-hydroxy-1-propynyl)-4-oxo-1,4-dihydro-3-quinolinecarboxamide] | –
6.30 | Nn1cc(C(=O)NCc2ccc(Cl)cc2)c(=O)c2cc(CCCO)ccc21 [Example 119, 1-Amino-N-(4-chlorobenzyl)-6-(3-hydroxypropyl)-4-oxo-1,4-dihydro-3-quinolinecarboxamide] | –
5.92 | O=C(NCc1ccc(Br)cc1)c1cn(N2CCOCC2)c2ccc(CN3CCOCC3)cc2c1=O [Example 124, N-(4-Bromobenzy)-1-(4-morpholinyl)-6-(4-morpholinylmethyl)-4-oxo-1,4-dihydro-3-quinolinecarboxamide] | –
5.96 | O=C(NCc1ccc(F)cc1)c1cn(N2CCOCC2)c2ccc(CN3CCOCC3)cc2c1=O [Example 125, N-(4-Fluorobenzyl)-1-(4-morpholinyl)-6-(4-morpholinylmethyl)-4-oxo-1,4-dihydro-3-quinolinecarboxamide] | –
